Results as given in the RepoRT retention time repository (doi:10.1021/acs.analchem.1c00972).

Experiment: RP, Waters ACQUITY UPLC BEH C18, 100 × 1 mm, 1.7 µm, 50 °C, 0.3 mL/min, estimated dead time 0.17 min; A: water + 0.1% formic acid + 20 mM ammonium formate; B: methanol + 0.1% formic acid + 20 mM ammonium formate; gradient (min/%B) 0/0 15/100 21/100 22/0 30/0
Conditions: stereoisomer not certain

## COc1c2ccoc2c(OC)c2oc(=O)ccc12 [Isopimpinellin]
  LC retention time: 12.2 min

## COC1CC(OC2C(C)OC(OC3C(C)=CCC4CC(CC5(CCC(C)C(C(C)C)O5)O4)OC(=O)C4C=C(C)C(O)C5OCC(=CC=CC3C)C45O)CC2OC)OC(C)C1O (configuration not stated) [Ivermectin B1b]
  LC retention time: 5.5 min

## O=C(O)c1cc(=O)c2ccccc2[nH]1 [Kynurenic acid]
  LC retention time: 6.9 min

## O=C1CC[C@@H](C(=O)O)N1 [L-Pyroglutamic acid]
  LC retention time: 7.7 min

## N[C@@H](Cc1ccc(O)cc1)C(=O)O [L-Tyrosine]
  LC retention time: 6.5 min

## O=c1cc(-c2ccc(O)c(O)c2)oc2cc(OC3OC(CO)C(O)C(O)C3O)cc(O)c12 (configuration not stated) [Luteolin 7-glucoside]
  LC retention time: 9.71 min

## CCOC(=O)CC(SP(=S)(OC)OC)C(=O)OCC (configuration not stated) [Malathion]
  LC retention time: 14.3 min

## O=c1ccc(=O)[nH][nH]1 [Maleic acid hydazide]
  LC retention time: 16.4 min

## C#CCOc1ccc(CCNC(=O)C(OCC#C)c2ccc(Cl)cc2)cc1OC (configuration not stated) [Mandipropamid]
  LC retention time: 14.3 min

## COc1ccc2[nH]cc(CCNC(C)=O)c2c1 [Melatonin]
  LC retention time: 9.71 min

## Cc1ccccc1C(=O)Nc1cccc(OC(C)C)c1 [Mepronil]
  LC retention time: 14.4 min

## COC(=O)c1ccc(CNS(C)(=O)=O)cc1S(=O)(=O)NC(=O)Nc1nc(OC)cc(OC)n1 [Mesosulfuron-methyl]
  LC retention time: 12.8 min

## Cc1cccc(C)c1N(Cn1cccn1)C(=O)C(=O)O [Metazachlor BH 479-4 (Metazachlor oxanilic acid (OA))]
  LC retention time: 9.29 min

## Cc1cccc(C)c1NC(=O)CCl [Metazachlor-N-dealkylation]
  LC retention time: 10.2 min

## Cc1cccc(C)c1N(Cn1cccn1)C(=O)CO [Metazachlor-OH-deschloro]
  LC retention time: 11.1 min

## COC(=O)C(C)=COP(=S)(OC)OC [Methacrifos]
  LC retention time: 12.1 min

## COc1nn(CSP(=S)(OC)OC)c(=O)s1 [Methidation]
  LC retention time: 13.2 min

## CNC(=O)Oc1cc(C)c(S(C)=O)c(C)c1 (configuration not stated) [Methiocarb-sulfoxide]
  LC retention time: 9.18 min

## Cn1ncc(N)c(Cl)c1=O [Methyl-Desphenyl-Chloridazon]
  LC retention time: 5.18 min

## CCc1cccc(C)c1NC(=O)CCl [Metolachlor-N-dealkylation]
  LC retention time: 13.7 min

## CC(C)(C)c1n[nH]c(=O)n(N)c1=O [Metribuzin-diketo]
  LC retention time: 9.82 min

## CN(C)c1ccc(O)c2c1CC1CC3C(N(C)C)C(=O)C(C(N)=O)=C(O)C3(O)C(=O)C1=C2O (configuration not stated) [Minocyclin]
  LC retention time: 8.3 min

## O=C(NCCN1CCOCC1)c1ccc(Cl)cc1 [Moclobemide]
  LC retention time: 8.18 min

## CCCC(C)(C)C(=O)Nc1ccc(Cl)cc1 [Monalide]
  LC retention time: 15 min

## CON(C)C(=O)Nc1ccc(Cl)cc1 [Monolinuron]
  LC retention time: 12.2 min

## CN(C)c1nc2c(ncn2C2OC(CO)C(O)C2O)c(=O)[nH]1 (configuration not stated) [N2_N2-Dimethylguanosine]
  LC retention time: 6.3 min

## CC(O)C(NC(=O)Nc1ncnc2c1ncn2C1OC(CO)C(O)C1O)C(=O)O (configuration not stated) [N6-Threonylcarbamoyladenosine]
  LC retention time: 7.6 min

## CN(C)c1ccccc1 [N,N-Dimethylaniline]
  LC retention time: 2.5 min

## CCNC(=O)c1cccc(C)c1 [N-Ethyl-3-methylbenzamide]
  LC retention time: 10.7 min

## CC=C(C)C(=O)NCC(=O)O [N-Tigloylglycine]
  LC retention time: 6.4 min

## CCOc1ccc2ccccc2c1C(=O)NC1C(=O)N2C1SC(C)(C)C2C(=O)O (configuration not stated) [Nafcillin]
  LC retention time: 13.6 min

## CCN(CC)CCOC(=O)C(Cc1cccc2ccccc12)CC1CCCO1 (configuration not stated) [Nafronyl]
  LC retention time: 16 min

## O=C1CCC2(O)C3Cc4ccc(O)c5c4C2(CCN3CC2CC2)C1O5 (configuration not stated) [Naltrexon]
  LC retention time: 5.88 min

## CCCCC(CC)COC(=O)C=Cc1ccc(OC)cc1 (configuration not stated) [Octyl-methoxycinnamate]
  LC retention time: 18.2 min

## CN(C)CCC=C1c2ccccc2COc2ccc(CC(=O)O)cc21 [Olopatadine]
  LC retention time: 11.5 min

## CCCCCCCCCCCC(CC1OC(=O)C1CCCCCC)OC(=O)C(CC(C)C)NC=O (configuration not stated) [Orlistat]
  LC retention time: 19 min

## CCOC(=O)C1=CC(OC(CC)CC)C(NC(C)=O)C(N)C1 (configuration not stated) [Oseltamivir]
  LC retention time: 11.5 min

## CNC(=O)ON=C(SC)C(=O)N(C)C [Oxamyl]
  LC retention time: 7.21 min

## CCOc1cc(Oc2ccc(C(F)(F)F)cc2Cl)ccc1[N+](=O)[O-] [Oxyfluorfen]
  LC retention time: 16.8 min

## CCC(C(N)=O)(C(N)=O)c1ccccc1 [PEMA]
  LC retention time: 7.76 min

## CCCCCCCCCCCCCCCC(=O)NCCO [Palmitoylethanolamide]
  LC retention time: 18.4 min

## Nc1nc2c(ncn2CCC(CO)CO)c(=O)[nH]1 [Penciclovir]
  LC retention time: 3.58 min

## Cc1cc([N+](=O)[O-])c(N)c([N+](=O)[O-])c1C [Pendimethalin-N-dealkylation]
  LC retention time: 14.6 min

## CCC=Nc1c([N+](=O)[O-])cc(C)c(C)c1[N+](=O)[O-] [Pendimethalin-desethyl]
  LC retention time: 8.48 min

## NC(Cc1ccccc1)C(=O)N1CCCC1C(=O)O (configuration not stated) [Phe-Pro]
  LC retention time: 8.7 min

## c1ccc2c(c1)Nc1ccccc1S2 [Phenothiazine]
  LC retention time: 14.9 min

## CCOC(=O)C(SP(=S)(OC)OC)c1ccccc1 (configuration not stated) [Phenthoate]
  LC retention time: 15.4 min

## O=C1NC(=O)C(c2ccccc2)(c2ccccc2)N1 [Phenytoin]
  LC retention time: 12 min

## N#Cc1ccccc1C#N [Phthalonitrile]
  LC retention time: 8.45 min

## Nc1ccc(F)cc1 [Picolinafen-Fluoroaniline]
  LC retention time: 2.59 min

## O=C(O)c1cccc(Oc2cccc(C(F)(F)F)c2)n1 [Picolinafen-OH-O-dealkylation]
  LC retention time: 14 min

## CCc1cc(C)cc(CC)c1-c1c(OC(=O)C(C)(C)C)n2n(c1=O)CCOCC2 [Pinoxaden]
  LC retention time: 10.5 min

## CCOC(=O)OC1(C(=O)COC(=O)CC)CCC2C3CCC4=CC(=O)C=CC4(C)C3C(O)CC21C (configuration not stated) [Prednicarbate]
  LC retention time: 15.3 min

## CC12C=CC(=O)C=C1CCC1C2C(O)CC2(C)C1CCC2(O)C(=O)CO (configuration not stated) [Prednisolone]
  LC retention time: 12.4 min

## CCCCCC1=CC(=O)C=C(OC)C1=O [Primin]
  LC retention time: 14.3 min

## CC12CC1(C)C(=O)N(c1cc(Cl)cc(Cl)c1)C2=O (configuration not stated) [Procymidone]
  LC retention time: 14.6 min

## CSc1nc(NC(C)C)nc(NC(C)C)n1 [Prometryne]
  LC retention time: 14.2 min

## CC(C)=NOCCOC(=O)C(C)Oc1ccc(Oc2cnc3cc(Cl)ccc3n2)cc1 (configuration not stated) [Propaquizafop]
  LC retention time: 16.8 min

## CC(C)Nc1nc(Cl)nc(NC(C)C)n1 [Propazin]
  LC retention time: 14 min

## CCNP(=S)(OC)OC(C)=CC(=O)OC(C)C (configuration not stated) [Propetamphos]
  LC retention time: 14.6 min

## CC(C)OC(=O)Nc1ccccc1 [Propham]
  LC retention time: 12.7 min

## CC1=NNC(=O)N(N=Cc2cccnc2)C1 [Pymetrozine]
  LC retention time: 5.76 min

## CC1=C(C(=O)Nc2ccccc2)CCCO1 [Pyracarbolid]
  LC retention time: 11.7 min

## CCOC(=O)c1cn2nc(OP(=S)(OCC)OCC)cc2nc1C [Pyrazophos]
  LC retention time: 15.9 min

## CON=C(Cc1cccnc1)c1ccc(Cl)cc1Cl [Pyrifenox]
  LC retention time: 14.3 min

## COc1cc(OC)n2nc(NS(=O)(=O)c3c(C(F)(F)F)ccnc3OC)nc2n1 [Pyroxsulam]
  LC retention time: 11.7 min

## O=c1c(O)c(-c2ccc(O)c(O)c2)oc2cc(O)cc(O)c12 [Quercetin]
  LC retention time: 11.4 min

## O=C(O)c1ccc2ccccc2n1 [Quinaldic acid]
  LC retention time: 7.3 min

## CCOP(=S)(OCC)Oc1cnc2ccccc2n1 [Quinalophos]
  LC retention time: 15.3 min

## CC1OC(OCC2OC(Oc3c(-c4ccc(O)c(O)c4)oc4cc(O)cc(O)c4c3=O)C(O)C(O)C2O)C(O)C(O)C1O (configuration not stated) [Rutin]
  LC retention time: 9.75 min

## CCC(C(=O)O)C1CCC(C)C(C(C)C(O)C(C)C(=O)C(CC)C2OC3(C=CC(O)C4(CCC(C)(C5CCC(O)(CC)C(C)O5)O4)O3)C(C)CC2C)O1 (configuration not stated) [Salinomycin]
  LC retention time: 18.4 min

## CC1CCCCC1NC(=O)Nc1ccccc1 (configuration not stated) [Siduron]
  LC retention time: 13.9 min

## CCC(C=CC(C)C1CCC2C3CC=C4CC(O)CCC4(C)C3CCC12C)C(C)C (configuration not stated) [Stigmasterol]
  LC retention time: 21.3 min

## O=C(O)CCCCCCC(=O)O [Suberic_acid]
  LC retention time: 9.6 min

## Nc1ccc(S(=O)(=O)Nc2cnc3ccccc3n2)cc1 [Sulfachinoxalin]
  LC retention time: 14 min

## COc1ccc(NS(=O)(=O)c2ccc(N)cc2)nn1 [Sulfamethoxypyridazin]
  LC retention time: 8.03 min

## O=S1(=O)CCCC1 [Sulfolane]
  LC retention time: 2.73 min

## CC(=O)N1N=C(c2ccc(N)cc2)c2cc3c(cc2CC1C)OCO3 (configuration not stated) [Talampanel]
  LC retention time: 11.5 min

## CC(=O)OC1C(=O)C2(C)C(O)CC3OCC3(OC(C)=O)C2C(OC(=O)c2ccccc2)C2(O)CC(OC(=O)C(O)C(NC(=O)c3ccccc3)c3ccccc3)C(C)=C1C2(C)C (configuration not stated) [Taxol]
  LC retention time: 15 min

## C=CNc1nc(NC(C)(C)C)nc(SC)n1 [Terbutryn-desaturated]
  LC retention time: 14.3 min

## CCNc1nc(=S)nc(NC(C)(C)C)[nH]1 [Terbutryn-desmethyl]
  LC retention time: 11.9 min

## C[N+](C)(C)C [Tetramethylammonium cation]
  LC retention time: 2 min

## NC(=O)N=C1SCCN1Cc1ccc(Cl)nc1 [Thiacloprid amide]
  LC retention time: 8.82 min

## CNC(=O)N(C)c1nnc(C(F)(F)F)s1 [Thiazafluron]
  LC retention time: 11.8 min

## CNC(=O)ON=C(CSC)C(C)(C)C [Thiofanox]
  LC retention time: 11.7 min

## CCOC(=O)C1(c2ccccc2)CCC=CC1N(C)C (configuration not stated) [Tilidine]
  LC retention time: 9.57 min

## CC(C)(C)C(=O)C(Oc1ccc(Cl)cc1)n1cncn1 (configuration not stated) [Triadimefon]
  LC retention time: 14.5 min
